Measurements: publication PMC6680510, “Benzotriazine Di-Oxide Prodrugs for Exploiting Hypoxia and Low Extracellular pH in Tumors” (Molecules, 2019)
Several values for one entry are separate records, joined by “and”; a condition that tells them apart may be missing. Identical values can stand only once. Like-named read-outs stand apart in the source and are kept apart here.

Assays:
[1] = system: FaDu cells; experiment: IC50 assay (inhibition of proliferation, 4 h exposure, SRB); type: cell-based; conditions: for IC50: Homo sapiens, 4 h
Experimental: Cells were seeded in 96-well plates (SiHa or FaDu 1500 cells/well, UT-SCC-74B 800 cells/well) in 100 μL. After incubation for 2 h, the drugs were added in 50 μL of the same titrated medium at 3× the final concentration to duplicate the wells. After a further 4 h the plates were checked for drug precipitation using a phase contrast microscope, then drugs were removed by aspirating and washing with the standard (pH 7.4) medium, then aspirating again and adding 150 μL of the medium. Cultures were then grown for 5 days before staining with sulphorhodamine B and measuring absorbance, with the estimation of IC50 values using 4-parameter logistic regression, as previously carried out [85].

[2] = system: MDCK-II cells with forced expression of BCRP or Pgp; experiment: IC50 under anoxia in cells with forced expression of efflux transporters; conditions: MDCK-II cell lines under anoxia, preliminary experiments
Experimental: expression of BCRP or Pgp.
Cells were seeded at 300 cells/well in DMEM with 10% FBS in 96 well plates in an
anaerobic chamber, allowed to attach for 2 h then exposed to drugs for 4 h under anoxia. Cells were
then washed with fresh medium and grown for 5 days under aerobic conditions before staining with
SRB. Values are mean ± SEM from 2 separate experiments.

[3] = system: SiHa cells; experiment: Cellular uptake in stirred aerobic single cell suspensions (HPLC, 3H-mannitol correction)
Experimental: In these experiments, cell pellets were collected by centrifugation and ^3H-mannitol was used as a cell-excluded marker to enable correction for the entrapped extracellular medium.
Log-phase cultures were dissociated with trypsin/EDTA, followed by the addition of the medium with DNAase I (Sigma DN-25) at 100 μg/mL for 5 min at 37 °C to minimize clumping. The cell pellets were collected by centrifugation and resuspended in αMEM with 5% FBS at pH 7.4 or 6.5 to 2 × 10^6 cells/mL. Samples (12 mL) were equilibrated with magnetic stirring at 37 °C under flowing humidified 5% CO2/air or N2 (50–100 mL/min), as previously described [86]. After equilibration for 60 min, the compounds were added in 50 μL of DMSO. The samples (5 mL) were withdrawn 5 and 60 min later, where the cell pellets were then collected by centrifugation and 4 mL of the supernatant was discarded. The pellets were resuspended in the remaining 1 mL, transferred to microcentrifuge tubes containing 7 μL ^3H-mannitol (740 GBq/mmol, American Radiolabeled Chemicals Inc., St. Louis, MO) as an extracellular marker, and then centrifuged (11,000g × 30s). The supernatant was removed and frozen at −80 °C (extracellular samples) and the tubes were centrifuged again, and any remaining medium was carefully removed. Ice-cold MeOH (80 μL) was added to the pellets which were disrupted by pipetting and stored at −80 °C (intracellular samples). When these were thawed for HPLC analysis (Section 4.12), the volume of extracellular water trapped in the pellets was determined by the scintillation counting (PerkinElmer Tri-Carb B2910TR Liquid Scintillation) of 25 μL of each extracellular and intracellular sample in 3 mL of Emulsifier-Safe™ scintillation cocktail (PerkinElmer). The extracellular volume in each intracellular sample was used to correct the intracellular drug concentration as previously described [87].
The samples were analyzed using an Agilent 1200 HPLC with a diode array absorbance detector and autosampler maintained at 4 °C (Agilent Technologies). The frozen samples were thawed, then centrifuged (11,000g × 5 min), and then extracellular samples were injected directly (typically 20 μL), while for the intracellular samples 30 μL was mixed 1:1 with αMEM and 50 μL was injected. […] All calibration curves were linear (R^2 > 0.999). The column was an Agilent ZORBAX Eclipse (XDB-C18, 5u, 2.1 × 150 mm, Agilent Technologies) with a flow rate of 0.4 mL/min. For SN30000 (2), the mobile phase was a mixture of 80% MeCN/water v/v (A), and a 45 mM formate buffer at a pH 4.5, eluting with a linear gradient of 5–100% A over 18 min. The same method was used for the BTO acids, except for 4a, where the aqueous mobile phase pH was reduced to 3.5.
Values are mean and SEM for 3 replicates. ND: Not detected.

[4] = system: UT-SCC-74B cells; experiment: IC50 assay (inhibition of proliferation, 4 h exposure, SRB); type: cell-based; conditions: UT-SCC-74B, UT-SCC-74B; for IC50: Homo sapiens, 4 h
Experimental: Cells were seeded in 96-well plates (SiHa or FaDu 1500 cells/well, UT-SCC-74B 800 cells/well) in 100 μL. After incubation for 2 h, the drugs were added in 50 μL of the same titrated medium at 3× the final concentration to duplicate the wells. After a further 4 h the plates were checked for drug precipitation using a phase contrast microscope, then drugs were removed by aspirating and washing with the standard (pH 7.4) medium, then aspirating again and adding 150 μL of the medium. Cultures were then grown for 5 days before staining with sulphorhodamine B and measuring absorbance, with the estimation of IC50 values using 4-parameter logistic regression, as previously carried out.
The medium and plasticware was equilibrated in the chamber for 3 days prior to use. In the anoxia experiments, FaDu cells were plated in poly-L-lysine coated plates (Corning Cat # 356461) to improve attachment. […]
Footnotes: a Number of experiments. b Anoxic cytotoxicity ratio = oxic IC50/anoxic IC50. c pH
cytotoxicity ratio = IC50 at pHe 7.4/ IC50 at pHe 6.5. d Overall ratio = oxic IC50 pHe 7.4 / anoxic IC50 pHe
6.5. Values are means and errors are SEM. For ratios, the errors are root mean square SEM. […]

[5] = system: SiHa cells; experiment: Effect of phenylpyruvate (MCT pan-inhibition) on cytotoxicity under anoxia; conditions: anoxic SiHa cells
Experimental: Effect of phenylpyruvate (PPV, 100 or 500 μM) on proliferation of SiHa cells following 4 h
exposure under anoxia to PPV alone (A) or with cmpd 4a at pHe 7.4 (B) or pHe 6.5 (C). 3000 cells/well
were seeded in 96 well plates, and IC 50 values determined as in Figure S6. Each data point is mean ±
SEM for three replicate cultures in the same experiment.

[6] = One-electron reduction potentials by pulse radiolysis; type: physicochemical; conditions: pH 7.0, equilibrium with redox indicator shown in square brackets
Method in brief: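 Redox equilibria at pH 7.0 (2.5 mM phosphate) established within 50 μs between one-electron reduced compound and viologen references MV^2+, TQ^2+ or V21^2+, generated by 4 MeV linac pulse radiolysis with time-resolved optical absorption. E^0′ vs NHE derived via Nernst equation from equilibrium constants, corrected for ionic strength.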

[7] = system: SiHa cells; experiment: Metabolism and uptake of ester 4b in anoxic single cell suspensions; type: in vitro ADME; conditions: anoxic SiHa suspensions after addition of 4b (150 μM), at 30 min
From the text: If the anionic sidechain of the BTO acids results in low intracellular concentrations, with reductive metabolism occurring largely at the cell surface, the corresponding esters would be expected to provide improved delivery to the intracellular compartment (consistent with their higher cytotoxic potencies, as noted in Section 2.5). To test this, we compared the metabolism of ester 4b (Figure 7A) with its corresponding acid 4a (Figure 7B) by monitoring extracellular concentrations in anoxic SiHa suspensions. The rates of metabolism of both compounds were unaffected by pHe, consistent with the results for 4a in Figure 5B. The ester was metabolized more rapidly than the acid, with only a trace of acid 4a detected transiently as an extracellular metabolite (Figure 7A). The major metabolites were the less polar 1-oxide, 15a, and the 1-oxide of the ester, 16a. In separate experiments with higher initial concentrations of 4b, 15a was again the main extracellular metabolite (Figure 7C, left). […] Compound 4b itself was not detected in the intracellular samples, presumably reflecting a lack of retention in cells and the very low intracellular volume, which will compromise analytical sensitivity (only 2 × 10^6 cells were collected for each analysis in this experiment).
Figure 7 Metabolism of BTO ester 4b and the corresponding acid 4a by anoxic SiHa single cell suspensions (2 × 10^6 cells/mL). (A) Extracellular concentrations following the addition of 4b (50 μM). (B) Extracellular concentrations following the addition of 4a (50 μM). (C) Extracellular (left) and intracellular (right) concentrations following the addition of 4b (150 μM). Values are means and errors are SEM for 3 replicate cultures.

[8] = Solubility in AlphaMEM + 5% FBS, pH 7.4; conditions: culture medium (AlphaMEM + 5% FBS), pH 7.4, plasma or biological fluid, kinetic from dmso stock
[9] = system: SiHa and SiHa/POR cells; experiment: IC50 in SiHa versus SiHa/POR cultures under anoxia; type: cell-based; conditions: 4 h under anoxia, pHe 7.4
Experimental: The lack of effect of POR over-expression on the reductive metabolism of the BTO acids in intact cells led us to compare the cytotoxicities of SN30000 (2), 4a, and 7a in SiHa/POR, and the parental line, under anoxia (Figure 6).
Drug exposure was for 4 h under anoxia, at pHe 7.4, with regrowth under aerobic conditions for 5 days before staining with SRB. Values are means and SEM for the two experiments, each with triplicate cultures at each drug concentration. TEXT PRINTED IN THE PICTURE: Cmpd 2: Ratio 6.75 ± 0.20 | Cmpd 4a: Ratio 3.40 ± 0.22 | Cmpd 7a: Ratio 2.67 ± 0.46

- Uptake (Ci/Ce) at 4 °C relative to 37 °C ([3]; SiHa cell suspensions, data not shown): undetectable
- Ci/Ce, pHe 6.5 Obs 5 min ([3]; aerobic SiHa suspensions, pHe 6.5, 5 min): <0.1
- Ci/Ce, pHe 6.5 Obs 60 min ([3]; aerobic SiHa suspensions, pHe 6.5, 60 min): <0.1
- Ci/Ce, pHe 7.4 Obs 5 min ([3]; aerobic SiHa suspensions, pHe 7.4, 5 min): <0.1
- Ci/Ce, pHe 7.4 Obs 60 min ([3]; aerobic SiHa suspensions, pHe 7.4, 60 min): <0.1
- E^0′ one-electron reduction potential [6]: −399 mV and −399 ± 7 [MV^2+] mV
- Maximum intracellular concentration [7]: 4.1 mM
- solubility [8]: 17.1 mM
- IC50 ratio SiHa / SiHa/POR (fold lower IC50 in POR cell line) [9]: 3.40 ± 0.22 and 3.4
SMILES: O=C(O)CCc1n[n+]([O-])c2ccccc2[n+]1[O-] [Compound 4a, 3-(2-Carboxyethyl)benzo[e][1,2,4]triazine 1,4-Dioxide]
- TMR (oxic IC50 pHe 7.4/anoxic IC50 pHe 6.5) [1]: 9.36 ± 1.68
- IC50 ([1]; pHe 6.5, 4 h, anoxic, read-out: Anoxic IC50): 142 ± 21 µM
- IC50 ([1]; pHe 6.5, 4 h, oxic, read-out: Oxic IC50): 507 ± 27 µM
- IC50 ([1]; pHe 7.4, 4 h, anoxic, read-out: Anoxic IC50): 325 ± 18 µM
- IC50 ([1]; pHe 7.4, 4 h, oxic, read-out: Oxic IC50): 1330 ± 136 µM
- PCR Anoxic (IC50 at pHe 7.4/IC50 at pHe 6.5) ([1]; anoxic): 2.29 ± 0.36
- PCR oxic (IC50 at pHe 7.4/IC50 at pHe 6.5) ([1]; oxic): 2.62 ± 0.30
- ACR (oxic IC50/anoxic IC50) ([1]; pHe 6.5): 3.58 ± 0.56
- ACR (oxic IC50/anoxic IC50) ([1]; pHe 7.4): 4.08 ± 0.48
- Effect of overexpression of BCRP or Pgp efflux transporters on sensitivity [2]: no effect
- IC50 ([4]; pHe 6.5, 4 h, 20% O2, read-out: Oxic IC50): 297 ± 74 µM
- IC50 ([4]; pHe 6.5, 4 h, <0.01% O2, read-out: Anoxic IC50): 97.6 ± 12.3 µM
- IC50 ([4]; pHe 7.4, 4 h, 20% O2, read-out: Oxic IC50): 863 ± 66 µM
- IC50 ([4]; pHe 7.4, 4 h, <0.01% O2, read-out: Anoxic IC50): 225 ± 26 µM
- TME ratio (oxic IC50 pHe 7.4/anoxic IC50 pHe 6.5) [4]: 8.84 ± 1.30
- PCR Anoxic (IC50 at pHe 7.4/IC50 at pHe 6.5) ([4]; anoxic): 2.31 ± 0.39 and 2.9
- PCR oxic (IC50 at pHe 7.4/IC50 at pHe 6.5) ([4]; oxic): 2.91 ± 0.76 and 2.3
- ACR (oxic IC50/anoxic IC50) ([4]; pHe 6.5): 3.04 ± 0.85
- ACR (oxic IC50/anoxic IC50) ([4]; pHe 7.4): 3.84 ± 0.53
- Effect of pan-inhibition of MCT by phenylpyruvate on sensitivity [5]: no effect
